One series concerns MT-4 cells. In words: Cytotoxicity in MT-4 cell culture by MTT staining method. It is filed as cell-based, human. Here is the method: (§1) Set virus TCID50 determination group and cell control group. Each concentration is duplicated in two pore. Incubate under 37° C., 5% CO2 and saturated humidity in an incubator. Add MTT into each pore of cell culture plate pipetted supernatant liquid to stain, continue to incubate for 4 hours, add decolorizing liquid, determine OD value at 570 nm wavelength by enzyme-linked apparatus, and [NT]50 and TC0 as above. […] [formula]
A general note: Tetrazolium dyes change colour on reduction, which living cells bring about.

Assay in series [1]: as above
The class given is cell-based, human. The conditions noted are these: human, MT-4 cells infected with HIV-1 IIIB; MT-4 cell culture, MTT staining; read-out: Cytotoxicity TC50, MTT. How it is done: as §1

In series [2] the target is T1, progestogen receptor (PRa) (Homo sapiens, UniProt P06401).
T1 sequence (P06401 1-769 isoform P06401-2): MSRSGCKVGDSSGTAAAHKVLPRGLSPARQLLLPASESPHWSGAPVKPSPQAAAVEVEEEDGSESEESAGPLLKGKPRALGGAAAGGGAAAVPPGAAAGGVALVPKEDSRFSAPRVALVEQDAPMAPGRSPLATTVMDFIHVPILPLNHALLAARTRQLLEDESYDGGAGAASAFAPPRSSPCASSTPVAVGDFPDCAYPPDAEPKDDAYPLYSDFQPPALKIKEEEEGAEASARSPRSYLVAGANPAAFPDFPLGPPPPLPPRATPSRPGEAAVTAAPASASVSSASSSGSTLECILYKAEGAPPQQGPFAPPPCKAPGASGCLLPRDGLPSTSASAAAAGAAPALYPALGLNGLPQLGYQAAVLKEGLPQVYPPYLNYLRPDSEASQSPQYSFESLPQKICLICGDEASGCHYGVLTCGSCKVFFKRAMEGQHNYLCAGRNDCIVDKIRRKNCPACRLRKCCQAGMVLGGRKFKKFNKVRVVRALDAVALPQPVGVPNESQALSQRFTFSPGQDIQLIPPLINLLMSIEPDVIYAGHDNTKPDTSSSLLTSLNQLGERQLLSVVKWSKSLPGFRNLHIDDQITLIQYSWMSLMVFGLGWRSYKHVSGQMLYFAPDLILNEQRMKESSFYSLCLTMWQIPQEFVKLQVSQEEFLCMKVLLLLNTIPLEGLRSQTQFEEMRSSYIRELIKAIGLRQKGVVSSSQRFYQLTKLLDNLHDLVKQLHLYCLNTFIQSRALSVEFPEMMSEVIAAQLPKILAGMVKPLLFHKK
As to the kind of experiment: Binding activity on human nuclear receptor PR. The following applies: mean ± SD, n = 4. Here is the method:
Buffer solution is composed of 25 mM NaPO4, 20 mM NaMoO4, 10 mM KF and 10% glycerol (pH=7.3) and stored under 4° C. Stock solution is prepared with CHAPS and DTT and stored under −20° C. […] Add 2.5 μl/hole into 96-pore plate. Take out appropriate amount of buffer solution reserve into solution to make the final concentration of CHAPS and DDT to become 0.25 mM and 2 mM respectively. Add protease inhibitors (aprotinin and leupeptin) to make its final concentration to become 1 μg/μl, and place in an ice bath. After adding human nuclear receptor GR (1:8), PR (1:100), ER (1:2000), AR (1:200) and MR (1:40) into the reaction system respectively, adequately mix suitable quantity of [^3H]-dexamethasone, [^3H]-progesterone, [^3H]-estradiol and [^3H]-DHT (from Amersham), rapidly add into 96-pore plate (100 μl/pore) and incubate overnight under 4° C. On the next day, add 25 μl of hydroxyapatite suspension into each pore and mix with shaking. After incubating for 10 min, separate by centrifuge for 3 min at 2500 rpm. The precipitate is washed with 100 μl of buffer solution and separated by centrifuge twice. Add 150 μl of scintillation solution (from Perkin Elmer) into each pore, mix with shaking and count by MicroBeta counter.

A further series deals with HIV-1 IIIB P24 antigen. As to the kind of experiment: microbe, parasite or virus in culture. The conditions noted are these: for Selection index (SI): MT-4. The class given is cell-based. Here is the method:
(1) Inoculate MT4 cells into 96-pore cell culture plate, 1×10^5 cells/ml, infect with HIV-1-IIIB virus strain of about 100TCID50, and add cymipristone solution at the same time, its concentration is below 100 μg/ml, triply diluted to 8 concentrations. Set virus TCID50 determination group and cell control group. Each concentration is duplicated in two pore. Incubate under 37° C., 5% CO2 and saturated humidity in an incubator.
Daily observe the cytopathy in above culture plate by microscope, record the degree of cytopathy with routine method, and calculate the 50% toxic concentration (TC50) and maximum nontoxic concentration (TC0) of drug according to Reed & Muench method. (3) Determination on HIV-1 P24 Antigen with Supernatant Liquid Pipetted from Cell Culture Plate Added Drug After 4 days (96 hours), pipette out the supernatant liquid from cell culture added drug and freeze HIV-1 P24 antigen used for determination.
Take the supernatant liquid on the fourth day, combine the liquid from two pore, and dilute by 1:100, Determine the HIV-1 P24 antigen titer (OD value) by ELISA method according to the instruction of HIV-1 P24 antigen reagent kit. […] At the same time, determine the 50% infection concentration of HIV-1/IIIB virus strain in MT-4 cells and virus infection quantity (TCID50).
(1) Calculation of TC50, IC50 and SI of Drug in Cell Culture According to Reed & Muench Method

Setting [3] is: Human immunodeficiency virus 1, IIIB, MT4, read-out: Inhibition rate on HIV-1 P24 antigen.

The results in this text go back to patent US20090111781A1, “Use of Cymipristone Type Compounds in Aids Treatment” (SHANGHAI THREE-ALLIANCE BIOTECHNOLOGIES CO., LTD., priority 2005, published 2009).

Where “and” joins values, the source holds several entries; their conditions need not be identical. Equal values may be shown once.

The IC50 is the midpoint of a concentration-inhibition curve. For orientation: inhibition means how much of the control response was suppressed.

As to `CC#C[C@]1(O)CC[C@H]2[C@@H]3CCC4=CC(=O)CCC4=C3[C@@H](c3ccc(N(C)C4CCCCC4)cc3)C[C@@]21C` [Cymipristone, 11β-[4-(N-methyl-N-cyclohexylamino)phenyl]-17α-(1-propynyl)-17β-hydroxyl-4,9-estradiene-3-one], the “Cytotoxicity TC50, MTT” value with MT-4 cells (MT-4 cell culture, MTT staining) was 30.26 µg/mL. Moreover, in the series on MT-4 cells (conclusion), the “Toxicity on cultured human T-lymphocyte MT-4 (in words)” value is “no significant toxicity”. In addition, in series [1], the CC50 at 96 h came to 60.9 µM. Besides, in series [2], the IC50 is 0.0052 ± 0.00026 µM. Moreover, the IC50 in the series on HIV-1 IIIB P24 antigen (Human immunodeficiency virus 1, IIIB, MT4, read-out: IC50 on HIV-1 IIIB P24 antigen) is 1.3 µg/mL and 2.62 µM. Also, in the series on HIV-1 IIIB P24 antigen (setting [3]), the inhibition at 0.05 µg/mL is 14%, the inhibition at 0.14 µg/mL turned out to be 17%, the inhibition at 0.41 µg/mL came out at 13% and the inhibition at 1.23 µg/mL was determined as 29%. Besides, the inhibition at 3.7 µg/mL with HIV-1 IIIB P24 antigen (setting [3]) was 93%. The “Selection index (SI)” value in the series on HIV-1 IIIB P24 antigen (SI=TC50/IC50, CPE cytotoxicity) is 5.93. Moreover, in the series on HIV-1 IIIB P24 antigen (SI=TC50/IC50, MTT cytotoxicity), the “Selection index (SI)” value was determined as 23.28. Further, the “Effect on HIV-1 P24 antigen formation in MT-4 cell culture (in words)” value in the series with HIV-1 IIIB P24 antigen (conclusion) is given as “significant inhibitory effect”.
